Key:
[1] = system: bacteria belonging to Bifidobacterium bifidum in Table 1; test: Availability of HMOs by bacteria belonging to Bifidobacterium bifidum (single culturing, summary); format: cell-based; settings: single bacterial culturing, 8 h; summary of Table 5
Procedure: (§1) The medium prepared in the above (3) was dispensed at a capacity that is half the capacity for culturing in a 96-well plate, and the bacterial solution prepared in the above (2) was dispensed at a remaining half capacity such that the bacterial solution had 6%. Then, a final sugar concentration was set to 2%. The plate into which the bacterial solution was dispensed was anaerobically cultured at 37° C. for 8 h.
(§2) OD650 was measured from each well in the plates in the above (4) and the above (5) before (0 h) culturing and after (8 h) culturing, by MICROPLATE READER SH-9000 (manufactured by CORONA ELECTRIC). After turbidity measurement, microbial cells were collected, and DNA extraction was performed. After the DNA extraction, the number of proliferating bacteria of Bifidobacteria/lactobacilli was analyzed by using the bacterial species-specific primer noted in Table 4, by a quantitative PCR method (see “Structural analysis of intestinal flora”—analysis of bacterial flora in human feces using quantitative PCR—by Kouichi Watanabe, Enterobacteriological journal, 20:35-42, 2006).
Regarding bacteria belonging to Bifidobacterium bifidum in Table 1, each strain was cultured as a single bacterium by 2′-FL or LNnT (HMOs) as a sugar source, and OD650 was measured. […]

[2] = system: Lactobacillus gasseri ATCC 33323; test: Mix-culturing with Bifidobacterium bifidum by HMO as sugar source, quantitative PCR; format: cell-based; settings: for Proliferation rate (number of bacteria after mix-culturing for 8 h/number of bacteria after single bacterial culturing): ATCC 33323^T mix-cultured with Bifidobacterium bifidum (NITE BP-02429), sugar source 2%, Table 8; for proliferation rate of Lactobacillus gasseri ATCC 33323^T (mix-cultured bacteria after 8 h/single bacterial culturing 8 h): Table 11
Procedure: (§3) A10% solution of glucose (manufactured by Nakarai Tesque Inc.), and 2′-FL ((≥95%) Funakoshi, available from sigma), and LNnT (manufactured by ELICITYL) as examples of HMOs was prepared with ion exchanged water, and was subjected to sterile filtration using Millex-GV (SLGV033RS).
(§4) Lactobacilli MRS Broth (BD) (0.05% L-Cysteine Hydrochloride for Bacteria of the genus Bifidobacterium) was added to strains of Table 1 below (bacteria belonging to Bifidobacterium bifidum) and Table 2 below. After a sterilization treatment, 3% of the bacterial solution was inoculated, and anaerobically cultured (pre-pre cultured) at 37° C. for 16 h.
(§5) The following day, 1% glucose was added to a modified BL agar medium (“Studies on Bifidobacteria” by Tomotari Mitsuoka, p. 306, Japan Bifidus Foundation, issued in 1994) noted in Table 3, for preparation. After a sterilization treatment, 3% of the pre-pre cultured bacterial solution was inoculated, and anaerobically pre-cultured (pre-cultured) at 37° C. for 12 h.
(§6) The pre-cultured bacterial solution was collected and washed once with a sterile physiological saline solution. Then, mass-up was performed to an equal volume with the modified BL agar medium (“Studies on Bifidobacteria” by Tomotari Mitsuoka, p. 306, Japan Bifidus Foundation, issued in 1994) noted in Table 3 to prepare a suspended bacterial solution.
(§7) The modified BL agar medium (“Studies on Bifidobacteria” by Tomotari Mitsuoka, p. 306, Japan Bifidus Foundation, issued in 1994) noted in Table 3 was prepared at a capacity of 60%, and was subjected to an autoclave sterilization treatment. Then, 40% of each sugar solution prepared in (1) was aseptically added so as to prepare a medium with a sugar concentration of 4%.
(§8) The medium prepared in the above (3) was dispensed at a capacity that is half the capacity for aseptic culturing in a 96-well plate, and each of the bacterial solutions of strains of bacteria belonging to Bifidobacterium bifidum in Table 1 and probiotics having a low ability to assimilate human milk oligosaccharides in Table 2, which was prepared in the above (2), was dispensed at a remaining […] capacity into the medium prepared in the above (3) such that the bacterial solution had 12%. Then, a final sugar concentration was set to 2%. The plate into which the bacterial solution was dispensed was anaerobically cultured at 37° C. for 8 h.
as §2
(§9) It was decided to culture Bifidobacterium bifidum (NITE BP-02429) in which availability of 2′-FL or LNnT was found as described above, in combination with strains in Table 2, which cannot use 2′-FL or LNnT. Bifidobacterium bifidum (NITE BP-02429) and the strains in Table 2, which cannot use 2′-FL or LNnT, were mix-cultured by 2′-FL or LNnT as a sugar source, and after culturing for 8 h, the proliferation rate of the number of bacteria of each strain (proliferation rate=the number of bacteria after mix-culturing for 8 h/the number of bacteria after single bacterial culturing) was measured by a quantitative PCR method using each strain-specific oligonucleotide primer noted in Table 4, for the strain in Table 2.
Seven strains of Bifidobacterium bifidum in Table 1 and Lactobacillus gasseri ATCC 33323^T which cannot use 2′-FL were mix-cultured by 2′-FL as a sugar source. […]

[3] = system: Bifidobacterium bifidum ATCC29521; test: Single bacterial culturing with HMO as sugar source, OD650; format: cell-based; settings: ATCC 29521^T, sugar source 2%, anaerobic 37° C., 8 h, Table 5
Procedure: as §3, §4, §5, §6, §7, §1, §2
(§10) Regarding bacteria belonging to Bifidobacterium bifidum in Table 1, each strain was cultured as a single bacterium by 2′-FL or LNnT (HMOs) as a sugar source, and OD650 was measured. Table 5 illustrates OD650 increase values after seven strains of the bacteria belonging to Bifidobacterium bifidum in Table 1 were cultured for 8 h by 2′-FL or LNnT as a sugar source.

[4] = system: Bifidobacterium bifidum NITE BP-02432; test: as above; format: cell-based; settings: sugar source 2%, anaerobic 37° C., 8 h, Table 5
Procedure: as §3, §4, §5, §6, §7, §1, §2, §10

[5] = system: Bifidobacterium bifidum NITE BP-02433; test: as above; format: cell-based; settings: sugar source 2%, anaerobic 37° C., 8 h, Table 5
Procedure: as §3, §4, §5, §6, §7, §1, §2, §10

[6] = system: Bifidobacterium bifidum NITE P-02648; test: as above; format: cell-based; settings: sugar source 2%, anaerobic 37° C., 8 h, Table 5
Procedure: as §3, §4, §5, §6, §7, §1, §2, §10

[7] = system: Bifidobacterium bifidum NITE BP-02431; test: as above; format: cell-based; settings: sugar source 2%, anaerobic 37° C., 8 h, Table 5
Procedure: as §3, §4, §5, §6, §7, §1, §2, §10

[8] = system: Bifidobacterium bifidum NITE BP-1252; test: as above; format: cell-based; settings: sugar source 2%, anaerobic 37° C., 8 h, Table 5
Procedure: as §3, §4, §5, §6, §7, §1, §2, §10

[9] = system: Bifidobacterium peseudocatenulatum ATCC27919; test: Mix-culturing with Bifidobacterium bifidum by HMO as sugar source, quantitative PCR; format: cell-based, Bifidobacterium pseudocatenulatum; settings: ATCC 27919^T mix-cultured with Bifidobacterium bifidum (NITE BP-02429), sugar source 2%, Table 8
Procedure: as §3
as §4, with “h. […]” for “h.”
OD650 was measured from each well in the plates in the above (4) and the above (5) before (0 h) culturing and after (8 h) culturing, by MICROPLATE READER SH-9000 (manufactured by CORONA ELECTRIC). […] After the DNA extraction, the number of proliferating bacteria of Bifidobacteria/lactobacilli was analyzed by using the bacterial species-specific primer noted in Table 4, by a quantitative PCR method (see “Structural analysis of intestinal flora”—analysis of bacterial flora in human feces using quantitative PCR—by Kouichi Watanabe, Enterobacteriological journal, 20:35-42, 2006). […]

[10] = system: Bifidobacterium animalis subspecies lactis MCC-525; test: as above; format: cell-based; settings: for Proliferation rate (number of bacteria after mix-culturing for 8 h/number of bacteria after single bacterial culturing): MCC-525 mix-cultured with Bifidobacterium bifidum (NITE BP-02429), sugar source 2%, Table 8; for Proliferation rate of MCC-525 (mix-cultured bacteria after 8 h/single bacterial culturing 8 h): Table 10; for number of proliferating bacteria of MCC-525 in combination with seven strains of Bifidobacterium bifidum compared to single bacterium culture: summary of Table 10
Procedure: as §3, §4, §5, §6, §7, §8, §2, §9
Seven strains of Bifidobacterium bifidum in Table 1 and Bifidobacterium animalis subspecies lactis MCC-525 which cannot use 2′-FL or LNnT were mix-cultured by 2′-FL or LNnT as a sugar source. […]

[11] = mix-cultured with Bifidobacterium bifidum ATCC 29521^T
[12] = mix-cultured with Bifidobacterium bifidum NITE BP-1252
[13] = mix-cultured with Bifidobacterium bifidum NITE BP-02429
[14] = mix-cultured with Bifidobacterium bifidum NITE BP-02431
[15] = mix-cultured with Bifidobacterium bifidum NITE BP-02432
[16] = mix-cultured with Bifidobacterium bifidum NITE BP-02433
[17] = mix-cultured with Bifidobacterium bifidum NITE P-02648

**Q.** Which “assimilability by all the bacteria belonging to Bifidobacterium bifidum in Table 1” value [1] does the source give for 2′-fucosyllactose [2′-FL] here?
**A.** had assimilability

**Q.** And the “Proliferation rate (number of bacteria after mix-culturing for 8 h/number of bacteria after single bacterial culturing)” value [2]?
**A.** 3.70

**Q.** What about the “proliferation rate of Lactobacillus gasseri ATCC 33323^T (mix-cultured bacteria after 8 h/single bacterial culturing 8 h)” value [2, 11] of the same compound?
**A.** 1.45

**Q.** What about the “proliferation rate of Lactobacillus gasseri ATCC 33323^T (mix-cultured bacteria after 8 h/single bacterial culturing 8 h)” value [2, 12] of the same compound?
**A.** 3.99

**Q.** And the “proliferation rate of Lactobacillus gasseri ATCC 33323^T (mix-cultured bacteria after 8 h/single bacterial culturing 8 h)” value [2, 13]?
**A.** 2.33

**Q.** And the “proliferation rate of Lactobacillus gasseri ATCC 33323^T (mix-cultured bacteria after 8 h/single bacterial culturing 8 h)” value [2, 14]?
**A.** 4.42

**Q.** And the “proliferation rate of Lactobacillus gasseri ATCC 33323^T (mix-cultured bacteria after 8 h/single bacterial culturing 8 h)” value [2, 15]?
**A.** 3.99

**Q.** And the “proliferation rate of Lactobacillus gasseri ATCC 33323^T (mix-cultured bacteria after 8 h/single bacterial culturing 8 h)” value [2, 16]?
**A.** 3.64

**Q.** And the “proliferation rate of Lactobacillus gasseri ATCC 33323^T (mix-cultured bacteria after 8 h/single bacterial culturing 8 h)” value [2, 17]?
**A.** 2.88

**Q.** What about the “number of proliferating bacteria of Lactobacillus gasseri ATCC33323T in combination with seven strains of Bifidobacterium bifidum compared to single bacterium culture” value ([2]; summary of Table 11) of the same compound?
**A.** promoted

**Q.** What about the OD650 increase value [3] of the same compound?
**A.** 0.060

**Q.** And the OD650 increase value [4]?
**A.** 0.430

**Q.** And the OD650 increase value [5]?
**A.** 0.431

**Q.** What about the OD650 increase value [6] of the same compound?
**A.** 0.470

**Q.** What about the OD650 increase value [7] of the same compound?
**A.** 0.037

**Q.** And the OD650 increase value [8]?
**A.** 0.225

**Q.** What about the “Proliferation rate (number of bacteria after mix-culturing for 8 h/number of bacteria after single bacterial culturing)” value [9] of the same compound?
**A.** 3.08

**Q.** What about the “Proliferation rate (number of bacteria after mix-culturing for 8 h/number of bacteria after single bacterial culturing)” value [10] of the same compound?
**A.** 2.62

**Q.** And the “Proliferation rate of MCC-525 (mix-cultured bacteria after 8 h/single bacterial culturing 8 h)” value [10, 11]?
**A.** 2.01

**Q.** What about the “Proliferation rate of MCC-525 (mix-cultured bacteria after 8 h/single bacterial culturing 8 h)” value [10, 12] of the same compound?
**A.** 2.06

**Q.** What about the “Proliferation rate of MCC-525 (mix-cultured bacteria after 8 h/single bacterial culturing 8 h)” value [10, 13] of the same compound?
**A.** 4.85

**Q.** And the “Proliferation rate of MCC-525 (mix-cultured bacteria after 8 h/single bacterial culturing 8 h)” value [10, 14]?
**A.** 3.82

**Q.** What about the “Proliferation rate of MCC-525 (mix-cultured bacteria after 8 h/single bacterial culturing 8 h)” value [10, 15] of the same compound?
**A.** 2.45

**Q.** What about the “Proliferation rate of MCC-525 (mix-cultured bacteria after 8 h/single bacterial culturing 8 h)” value [10, 16] of the same compound?
**A.** 3.67

**Q.** What about the “Proliferation rate of MCC-525 (mix-cultured bacteria after 8 h/single bacterial culturing 8 h)” value [10, 17] of the same compound?
**A.** 4.35

**Q.** What about the “number of proliferating bacteria of MCC-525 in combination with seven strains of Bifidobacterium bifidum compared to single bacterium culture” value [10] of the same compound?
**A.** promoted

**Q.** Which results are given for `CC(=O)N[C@H]1[C@H](O[C@H]2[C@@H](O)[C@@H](CO)O[C@@H](O[C@H]3[C@H](O)[C@@H](O)C(O)O[C@@H]3CO)[C@@H]2O)O[C@H](CO)[C@@H](O[C@@H]2O[C@H](CO)[C@H](O)[C@H](O)[C@H]2O)[C@@H]1O` (mixture of isomers) [LNnT, lacto-N-neotetraose]?
**A.** assimilability by all the bacteria belonging to Bifidobacterium bifidum in Table 1 [1]: had assimilability; Proliferation rate (number of bacteria after mix-culturing for 8 h/number of bacteria after single bacterial culturing) [2]: 1.53; OD650 increase value [3]: 0.008; OD650 increase value [4]: 0.522; OD650 increase value [5]: 0.370; OD650 increase value [6]: 0.719; OD650 increase value [7]: 0.535; OD650 increase value [8]: 0.373; Proliferation rate (number of bacteria after mix-culturing for 8 h/number of bacteria after single bacterial culturing) [9]: 1.55; Proliferation rate (number of bacteria after mix-culturing for 8 h/number of bacteria after single bacterial culturing) [10]: 1.41; proliferation promotion effect of the number of bacteria of MCC-525 ([10]; in the combination with Bifidobacterium bifidum (NITE BP-1252)): significantly higher; Proliferation rate of MCC-525 (mix-cultured bacteria after 8 h/single bacterial culturing 8 h) [10, 11]: 3.87; Proliferation rate of MCC-525 (mix-cultured bacteria after 8 h/single bacterial culturing 8 h) [10, 12]: 19.98; Proliferation rate of MCC-525 (mix-cultured bacteria after 8 h/single bacterial culturing 8 h) [10, 13]: 4.17; Proliferation rate of MCC-525 (mix-cultured bacteria after 8 h/single bacterial culturing 8 h) [10, 14]: 3.58; Proliferation rate of MCC-525 (mix-cultured bacteria after 8 h/single bacterial culturing 8 h) [10, 15]: 4.21; Proliferation rate of MCC-525 (mix-cultured bacteria after 8 h/single bacterial culturing 8 h) [10, 16]: 2.39; Proliferation rate of MCC-525 (mix-cultured bacteria after 8 h/single bacterial culturing 8 h) [10, 17]: 6.03; number of proliferating bacteria of MCC-525 in combination with seven strains of Bifidobacterium bifidum compared to single bacterium culture [10]: promoted
